From patent publication US20260193274A1, “AKT1 MODULATORS” (Alterome Therapeutics, Inc., priority 2022, published 2026) come the findings set out here.

This experiment deals with T1, AKT1-E17K (Homo sapiens, UniProt P31749, E17K).
T1 construct: host or cells: HEK-293 (ATCC CRL-1573)
T1 sequence (P31749 whole entry E17K): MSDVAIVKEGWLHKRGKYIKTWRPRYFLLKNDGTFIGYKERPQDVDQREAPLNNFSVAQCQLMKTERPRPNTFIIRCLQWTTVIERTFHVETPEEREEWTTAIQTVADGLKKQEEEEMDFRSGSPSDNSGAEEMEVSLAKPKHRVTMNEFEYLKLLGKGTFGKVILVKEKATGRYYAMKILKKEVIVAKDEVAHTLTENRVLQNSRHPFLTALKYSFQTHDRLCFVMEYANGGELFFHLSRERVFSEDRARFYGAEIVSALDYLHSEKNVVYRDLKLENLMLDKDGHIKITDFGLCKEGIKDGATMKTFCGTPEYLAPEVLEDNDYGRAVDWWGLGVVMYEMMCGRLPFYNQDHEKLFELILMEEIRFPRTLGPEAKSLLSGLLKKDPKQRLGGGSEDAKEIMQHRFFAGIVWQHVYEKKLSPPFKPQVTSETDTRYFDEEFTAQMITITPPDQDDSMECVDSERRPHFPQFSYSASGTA
Kind of experiment: NanoBRET Target Engagement (TE) Assay. It is filed as cell-based. To be noted: full length AKT E17K NanoLuc fusion in transfected HEK-293 cells; 2 hr equilibration with tracer and compound. The source says: NanoBRET is a highly specific and validated cell-based technique for assessing target engagement (Vasta et al., 2018, Cell Chem Biol. 25(2):206-214). The NanoBRET™ Target Engagement (TE) Intracellular Kinase Assays are based on the NanoBRET™ System (Promega Corporation), an energy transfer technique designed to measure molecular proximity in living cells. The NanoBRET™ TE Assays measure the apparent affinity of test compounds by competitive displacement of the NanoBRET™ tracer compound, which is a cell permeable molecule engineered to be reversibly bound to a NanoLuc® luciferase-kinase fusion expressed in cells. For compound screening, when a test compound binds to the selected kinase, the BRET signal is attenuated. For kinase inhibitors in particular, intracellular target selectivity is fundamental to pharmacological mechanism and allows the proteins of interest to be in the correct cellular confirmation. Although non-cell-based techniques have been developed to measure kinase binding or enzymatic inhibition with accuracy and precision, such approaches can fail to accurately predict engagement of the full-length target protein in the more complex and biologically relevant cellular context (Knight and Shokat, 2005, Chem. Biol. 12, 621-637; Smyth and Collins, 2009, J. Chem. Biol. 2, 131-151). […] Briefly, HEK-293 cells (ATCC Cat #CRL-1573) were used for transfection purposes using FuGENE HD Transfection Reagent (Promega Cat #E2311). All cells were evaluated for viability prior to transfection and optimization of the transfection was done prior to experimentation. Greater than 95% viability was used for all experiments. Following transfection, cells were washed and resuspended in Opti-MEM. NanoBRET assays were performed in white, 384-well plates (Corning) at a density of 2×10^5 cells/well. All example compounds were prepared as concentrated stock solutions in DMSO (Sigma-Aldrich). Compounds are dissolved in DMSO to make 10 mM stock solution. Example compounds were transferred as 40 μL of 10 mM stock solution to a 384 pp-plate (LABCYTE, PP-0200) and diluted in 3-fold, 10-point dilution via transferring […] by Apricot liquid handler. A Labcyte ECHO 550 compound dispenser was used to facilitate compound transfer directly to cells. Cells were equilibrated for 2 hr with energy transfer probes and example compound prior to BRET measurements. The AKTE17K (Promega Cat #NV2421) as well as specific probe (NanoBRET tracer, Promega Cat #N264B) was prepared at a concentration of 20× in tracer dilution buffer (12.5 mM HEPES, 31.25% PEG-400, pH 7.5). For target engagement analysis, the energy transfer probes were added to the cells at concentrations optimized for the target in question (AKT E17K). Following compound incubation, NanoBRET NanoGlo Substrate (Promega Cat #N157D) and Extracellular Nanoluc Inhibitor (Promega Cat #N235C) was added according to the manufacturer's recommended protocol, and luminescence was measured on Envision Reader (Perkin Elmer) Multimode Luminometer equipped with 450 nmBPfilter (donor) and 600 nmLPfilter (acceptor), using 0.5 s integration time. Milli-BRET units (mBU) are calculated by multiplying the raw BRET values by 1000. Apparent tracer affinity values (EC50) were determined using the sigmoidal dose-response (variable slope). Competitive displacement data were then plotted and data were fit to determine the EC50 value for each example compound.
(In BRET a luciferase serves as donor, and the signal depends on an acceptor being close.)
As to `N#CNC1CCN(Cc2ccc(-n3c(-c4cccnc4N)nc4cccnc43)cc2)CC1` [Example 1, N-(1-(4-(2-(2-Aminopyridin-3-yl)-3H-imidazo[4,5-b]pyridin-3-yl)benzyl)piperidin-4-yl)cyanamide], the IC50 – broadly, the concentration needed to halve the response being measured – is > 600 nM.

For the compound `N#CN1CCN(Cc2ccc(-n3c(-c4cccnc4N)nc4ccc(-c5ccccc5)nc43)cc2)CC1` [Example 2, 4-(4-(2-(2-Aminopyridin-3-yl)-5-phenyl-3H-imidazo[4,5-b]pyridin-3-yl)benzyl)piperazine-1-carbonitrile], the IC50 is > 600 nM.

Consider `N#CNC1CCN(Cc2ccc(-n3c(-c4cccnc4N)nc4ccc(-c5ccccc5)nc43)cc2)CC1` [Example 3, N-(1-(4-(2-(2-Aminopyridin-3-yl)-5-phenyl-3H-imidazo[4,5-b]pyridin-3-yl)benzyl)piperidin-4-yl)cyanamide], for which the IC50 is < 15 nM.

In the case of `CC(=O)Nc1cccc(-c2ccc3nc(-c4cccnc4N)n(-c4ccc(CN5CCC(NC#N)CC5)cc4)c3n2)c1` [Example 4, N-(3-(2-(2-Aminopyridin-3-yl)-3-(4-((4-cyanamidopiperidin-1-yl)methyl)phenyl)-3H-imidazo[4,5-b]pyridin-5-yl)phenyl)acetamide], the IC50 was < 15 nM.

For the compound `N#CN1CC2(C1)CN(Cc1ccc(-n3c(-c4cccnc4N)nc4ccc(-c5ccccc5)nc43)cc1)C2` [Example 5, 6-(4-(2-(2-Aminopyridin-3-yl)-5-phenyl-3H-imidazo[4,5-b]pyridin-3-yl)benzyl)-2,6-diazaspiro[3.3]heptane-2-carbonitrile], the IC50 was in the range of 15 to 60 nM.

In turn, `N#CN[C@H]1CCCN(Cc2ccc(-n3c(-c4cccnc4N)nc4ccc(-c5ccccc5)nc43)cc2)C1` [Example 6, (S)—N-(1-(4-(2-(2-Aminopyridin-3-yl)-5-phenyl-3H-imidazo[4,5-b]pyridin-3-yl)benzyl)piperidin-3-yl)cyanamide] came in with a concentration for half-maximal inhibition (IC50) of 15 to 60 nM.

As to `N#CN[C@H]1CCN(Cc2ccc(-n3c(-c4cccnc4N)nc4ccc(-c5ccccc5)nc43)cc2)C1` [Example 7, (S)—N-(1-(4-(2-(2-Aminopyridin-3-yl)-5-phenyl-3H-imidazo[4,5-b]pyridin-3-yl)benzyl)pyrrolidin-3-yl)cyanamide], the IC50 is < 15 nM.

`N#CNC1CCC2(CC1)CCN(Cc1ccc(-n3c(-c4cccnc4N)nc4ccc(-c5ccccc5)nc43)cc1)C2` (stereo not drawn) [Example 8, N-(2-(4-(2-(2-Aminopyridin-3-yl)-5-phenyl-3H-imidazo[4,5-b]pyridin-3-yl)benzyl)-2-azaspiro[4.5]decan-8-yl)cyanamide] showed an IC50 of 60 to 600 nM.

`N#CN[C@@H]1CCCN(Cc2ccc(-n3c(-c4cccnc4N)nc4ccc(-c5ccccc5)nc43)cc2)C1` [Example 9, (R)—N-(1-(4-(2-(2-Aminopyridin-3-yl)-5-phenyl-3H-imidazo[4,5-b]pyridin-3-yl)benzyl)piperidin-3-yl)cyanamide] gave an IC50 of 15 to 60 nM.

For the compound `N#CN[C@@H]1CCN(Cc2ccc(-n3c(-c4cccnc4N)nc4ccc(-c5ccccc5)nc43)cc2)C1` [Example 10, (R)—N-(1-(4-(2-(2-Aminopyridin-3-yl)-5-phenyl-3H-imidazo[4,5-b]pyridin-3-yl)benzyl)pyrrolidin-3-yl)cyanamide], the IC50 was < 15 nM.

Consider `N#CNC1CCN(Cc2ccc(-n3c(-c4cccnc4N)nc4cc(-c5ccccc5)cnc43)cc2)CC1` [Example 11, N-(1-(4-(2-(2-Aminopyridin-3-yl)-6-phenyl-3H-imidazo[4,5-b]pyridin-3-yl)benzyl)piperidin-4-yl)cyanamide], for which the IC50 was 60 to 600 nM.

In turn, `N#CN1CCCN(Cc2ccc(-n3c(-c4cccnc4N)nc4ccc(-c5ccccc5)nc43)cc2)CC1` [Example 12, 4-(4-(2-(2-Aminopyridin-3-yl)-5-phenyl-3H-imidazo[4,5-b]pyridin-3-yl)benzyl)-1,4-diazepane-1-carbonitrile] returned an IC50 of 60 to 600 nM.

Consider `N#CNC1CC2(CCN(Cc3ccc(-n4c(-c5cccnc5N)nc5ccc(-c6ccccc6)nc54)cc3)CC2)C1` [Example 13, N-(7-(4-(2-(2-Aminopyridin-3-yl)-5-phenyl-3H-imidazo[4,5-b]pyridin-3-yl)benzyl)-7-azaspiro[3.5]nonan-2-yl)cyanamide], for which the IC50 was < 15 nM.

Compound `CN(C#N)C1CCN(Cc2ccc(-n3c(-c4cccnc4N)nc4ccc(-c5ccccc5)nc43)cc2)CC1` [Example 14, N-(1-(4-(2-(2-Aminopyridin-3-yl)-5-phenyl-3H-imidazo[4,5-b]pyridin-3-yl)benzyl)piperidin-4-yl)-N-methylcyanamide] yielded an IC50 of 15 to 60 nM.

In turn, `N#CN1CC2(CCN(Cc3ccc(-n4c(-c5cccnc5N)nc5ccc(-c6ccccc6)nc54)cc3)CC2)C1` [Example 15, 7-(4-(2-(2-Aminopyridin-3-yl)-5-phenyl-3H-imidazo[4,5-b]pyridin-3-yl)benzyl)-2,7-diazaspiro[3.5]nonane-2-carbonitrile] returned an IC50 of 15 to 60 nM.

Regarding `N#CN1CCC2(CCN(Cc3ccc(-n4c(-c5cccnc5N)nc5ccc(-c6ccccc6)nc54)cc3)CC2)C1` [Example 16, 8-(4-(2-(2-Aminopyridin-3-yl)-5-phenyl-3H-imidazo[4,5-b]pyridin-3-yl)benzyl)-2,8-diazaspiro[4.5]decane-2-carbonitrile], the IC50 is < 15 nM.

The compound `N#CN1CCC2(CC1)CCN(Cc1ccc(-n3c(-c4cccnc4N)nc4ccc(-c5ccccc5)nc43)cc1)CC2` [Example 17, 9-(4-(2-(2-Aminopyridin-3-yl)-5-phenyl-3H-imidazo[4,5-b]pyridin-3-yl)benzyl)-3,9-diazaspiro[5.5]undecane-3-carbonitrile] registered an IC50 of 15 to 60 nM.

`N#CN1CC2(CCN(Cc3ccc(-n4c(-c5cccnc5N)nc5ccc(-c6ccccc6)nc54)cc3)C2)C1` [Example 18, 6-(4-(2-(2-Aminopyridin-3-yl)-5-phenyl-3H-imidazo[4,5-b]pyridin-3-yl)benzyl)-2,6-diazaspiro[3.4]octane-2-carbonitrile] returned a half-inhibitory concentration (IC50) of 60 to 600 nM.

For the compound `N#CN1CCC2(CCN(Cc3ccc(-n4c(-c5cccnc5N)nc5ccc(-c6ccccc6)nc54)cc3)C2)C1` (stereo not drawn) [Example 19, 7-(4-(2-(2-Aminopyridin-3-yl)-5-phenyl-3H-imidazo[4,5-b]pyridin-3-yl)benzyl)-2,7-diazaspiro[4.4]nonane-2-carbonitrile], the IC50 lay within 15 to 60 nM.

`N#CN1CCC2(CC1)CCN(Cc1ccc(-n3c(-c4cccnc4N)nc4ccc(-c5ccccc5)nc43)cc1)C2` [Example 20, 2-(4-(2-(2-Aminopyridin-3-yl)-5-phenyl-3H-imidazo[4,5-b]pyridin-3-yl)benzyl)-2,8-diazaspiro[4.5]decane-8-carbonitrile] had an IC50 of 15 to 60 nM.

Regarding `N#CN1CCCC2(CCN(Cc3ccc(-n4c(-c5cccnc5N)nc5ccc(-c6ccccc6)nc54)cc3)C2)C1` (stereo not drawn) [Example 21, 2-(4-(2-(2-Aminopyridin-3-yl)-5-phenyl-3H-imidazo[4,5-b]pyridin-3-yl)benzyl)-2,7-diazaspiro[4.5]decane-7-carbonitrile], the IC50 was > 600 nM.

As for `N#CN1CCC2(CC1)CN(Cc1ccc(-n3c(-c4cccnc4N)nc4ccc(-c5ccccc5)nc43)cc1)C2` [Example 22, 2-(4-(2-(2-Aminopyridin-3-yl)-5-phenyl-3H-imidazo[4,5-b]pyridin-3-yl)benzyl)-2,7-diazaspiro[3.5]nonane-7-carbonitrile], the IC50 lay within 60 to 600 nM.

In the case of `N#CN1CC[C@@]2(CCN(Cc3ccc(-n4c(-c5cccnc5N)nc5ccc(-c6ccccc6)nc54)cc3)C2)C1` [Example 23, (R)-7-(4-(2-(2-Aminopyridin-3-yl)-5-phenyl-3H-imidazo[4,5-b]pyridin-3-yl)benzyl)-2,7-diazaspiro[4.4]nonane-2-carbonitrile], the IC50 is < 15 nM.

For `N#CN1CCCC2(CCN(Cc3ccc(-n4c(-c5cccnc5N)nc5ccc(-c6ccccc6)nc54)cc3)CC2)C1` [Example 24, 9-(4-(2-(2-Aminopyridin-3-yl)-5-phenyl-3H-imidazo[4,5-b]pyridin-3-yl)benzyl)-2,9-diazaspiro[5.5]undecane-2-carbonitrile], the IC50 lay in the range of 60 to 600 nM.
